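How tested: cells in 96-well plates exposed to compound for 48 hours at five concentrations. GI50 is the concentration that inhibits growth by half. TGI marks complete inhibition of growth.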
Assays:
Experiment in all cases: DTP human tumour cell line panel, 48 h
MDA-MB-435 = tested on: MDA-MB-435
MDA-N = tested on: MDA-N
MOLT-4 leukemia = tested on: MOLT-4 leukemia
OVCAR-4 ovarian = tested on: OVCAR-4 ovarian
OVCAR-5 ovarian = tested on: OVCAR-5 ovarian
SF-268 CNS = tested on: SF-268 CNS
SF-295 CNS = tested on: SF-295 CNS
SF-539 CNS = tested on: SF-539 CNS
SK-OV-3 ovarian = tested on: SK-OV-3 ovarian
CCRF-CEM leukemia = tested on: CCRF-CEM leukemia

Row | Compound | TGI (MDA-MB-435) | TGI (MDA-N) | TGI (MOLT-4 leukemia) | TGI (OVCAR-4 ovarian) | TGI (OVCAR-5 ovarian) | TGI (SF-268 CNS) | TGI (SF-295 CNS) | TGI (SF-539 CNS) | TGI (SK-OV-3 ovarian) | TGI (CCRF-CEM leukemia) | GI50 (CCRF-CEM leukemia) | GI50 (MOLT-4 leukemia) | GI50 (OVCAR-4 ovarian) | GI50 (OVCAR-5 ovarian) | GI50 (SF-268 CNS) | GI50 (SF-295 CNS) | GI50 (SF-539 CNS) | GI50 (SK-OV-3 ovarian)
1 | CCOC(=O)C1=COC(C)(CCc2ccccc2)CC1=O (stereo not given) | > 100 µM | > 100 µM | > 100 µM | > 100 µM | > 100 µM | > 100 µM | > 100 µM | > 100 µM | > 100 µM |  |  |  |  |  |  |  |  | 
2 | CCN(CC)c1ccc2cc(C(=O)Nc3ccccn3)c(=N)oc2c1 | > 100 µM | > 100 µM | > 100 µM | > 100 µM | > 100 µM | > 100 µM |  | > 100 µM | > 100 µM | > 100 µM |  |  |  |  |  |  |  | 
3 | O=C1Nc2ccccc2Nc2ccncc21 |  |  | > 100 µM | > 100 µM | > 100 µM | > 100 µM | > 100 µM | > 100 µM | > 100 µM | > 100 µM |  |  |  |  |  |  |  | 
4 | CNc1ncc(-c2nnnn2-c2ccccc2)c(CN(C)C)n1 | > 100 µM |  | > 100 µM |  | > 100 µM | > 100 µM | > 100 µM | > 100 µM | > 100 µM | > 100 µM |  |  |  |  |  |  |  | 
5 | CC(=O)[CH-]C(=O)c1ccccc1.CC(=O)[CH-]C(=O)c1ccccc1.C[C@]12CCC(=O)C=C1CC[C@@H]1C2CC[C@@]2(C)C1CC[C@]2(C)[O-].C[C@]12CCC(=O)C=C1CC[C@@H]1C2CC[C@@]2(C)C1CC[C@]2(C)[O-].Cl.[Ti+4] (stereo not given in full) |  |  | > 100 µM | > 100 µM | > 100 µM | 75.2 µM | 57.3 µM | 29.3 µM | 53.1 µM | > 100 µM | 9.78 µM | 12.5 µM | 42.7 µM | 16.5 µM | 20.7 µM | 18.4 µM | 13.9 µM | 23.4 µM
6 | COc1cccc(/C=N/[N-]C(N)=O)c1[O-].[Cu+2].[OH3+].c1ccc(-c2ccccn2)nc1 |  |  | > 100 µM | 33.1 µM | > 100 µM | > 100 µM | > 100 µM | 67.7 µM | 27.3 µM | > 95.6 µM |  |  |  |  |  |  |  | 
7 | COc1ccc(/C=C/C2=NN(c3cccc(S(=O)(=O)O)c3)C3(C2)SCC(=O)N3c2nc3ccccc3s2)cc1 (stereo not given) | > 100 µM | > 100 µM | > 100 µM | > 100 µM | > 100 µM | > 100 µM |  | > 100 µM |  | 77.5 µM |  |  |  |  |  |  |  | 
8 | Cc1nc2ccccc2c(/C=C/c2ccc(Cl)cc2)c1C(=O)/C=C/c1ccc(Cl)cc1 |  |  | > 100 µM |  |  |  |  | 3.14 µM |  | > 100 µM | 0.605 µM | 0.788 µM |  |  |  |  | 1.71 µM | 
9 | COc1ccc2oc(=O)c(-c3csc(C)n3)cc2c1 | > 100 µM |  | > 100 µM | > 100 µM | > 100 µM | 50.3 µM | 40 µM | 57 µM | 87.3 µM | > 100 µM |  |  |  |  |  |  |  | 
10 | O=C(NC(=S)NC(=O)c1cc(O)c(O)c(O)c1)c1cc(O)c(O)c(O)c1 | 24.7 µM | 6.06 µM |  | 46.1 µM | 78.8 µM | > 100 µM | 46.3 µM | > 100 µM | > 100 µM | > 100 µM |  |  |  |  |  |  |  | 
11 | CC1C(c2ccc(Cl)cc2)c2cc3c(cc2OC1N1CCOCC1)OCO3 (stereo not given) | > 100 µM | > 100 µM | > 100 µM |  | > 100 µM | > 100 µM | > 100 µM | > 100 µM |  | > 100 µM |  |  |  |  |  |  |  | 
12 | O=C(Nc1ccccc1)c1cc(S(=O)(=O)N2CCNNC2=O)c(S)cc1Cl | > 100 µM | > 100 µM | > 100 µM | > 100 µM | > 100 µM | > 100 µM | > 100 µM | > 100 µM |  | > 100 µM |  |  |  |  |  |  |  | 
13 | CCc1ccccc1NNc1cc(=O)[nH]c(=O)[nH]1 | 34.1 µM | 33.6 µM | 85.7 µM | 38 µM | 37.3 µM |  | 36.2 µM | 52.2 µM | 64.8 µM | 82.8 µM |  |  |  |  |  |  |  | 
14 | CCOC(=O)Cc1nc2c(N)ncnc2n1C1OC(COC(C)=O)C(OC(C)=O)C1OC(C)=O (stereo not given) | > 100 µM | > 100 µM | > 100 µM |  |  | > 100 µM | > 100 µM | > 100 µM | > 100 µM | > 100 µM |  |  |  |  |  |  |  | 
15 | CC(=O)N(O)c1ccc(-c2nc3ccccc3s2)cc1 | > 100 µM | > 100 µM | > 100 µM | > 100 µM | > 100 µM | > 100 µM | > 100 µM |  |  | > 100 µM |  |  |  |  |  |  |  | 
16 | Cc1ccccc1NC(=O)Cc1csc2[n+]1C(=O)/C(=C/c1ccc([N+](=O)[O-])cc1)S2 | > 100 µM | > 100 µM | > 100 µM | 35.3 µM | > 100 µM |  | > 100 µM | > 100 µM | > 100 µM |  |  |  |  |  |  |  |  | 
17 | COc1cc2nc(-c3cccs3)[nH]c(=O)c2cc1OC | > 100 µM |  |  | > 100 µM | > 100 µM | > 100 µM | > 100 µM | > 100 µM | > 100 µM | > 100 µM |  |  |  |  |  |  |  | 
18 | NC(Cc1ccc(S(=O)(=O)O)cc1)C(=O)NC(Cc1ccc(S(=O)(=O)O)cc1)C(=O)O (stereo not given) | > 100 µM | > 100 µM | > 100 µM | > 100 µM | > 100 µM | > 100 µM | > 100 µM | > 100 µM |  | > 100 µM |  |  |  |  |  |  |  | 
19 | Cc1nc2c(=S)n(C)ncc2[nH]1 | > 100 µM | > 100 µM | > 100 µM | > 100 µM | > 100 µM |  | > 100 µM | > 100 µM | > 100 µM | > 100 µM |  |  |  |  |  |  |  | 
20 | CC(=O)Oc1ccc(/C=C/C(=O)O[C@@H](C(=O)O)[C@@H](OC(=O)/C=C/c2ccc(OC(C)=O)c(OC(C)=O)c2)C(=O)O)cc1OC(C)=O | > 100 µM | > 100 µM |  | > 100 µM | > 100 µM | > 100 µM | > 100 µM |  | > 100 µM | > 100 µM |  |  |  |  |  |  |  | 
21 | S=C(Nc1ccc2cn[nH]c2c1)Nc1ccc2cn[nH]c2c1 | > 100 µM | > 100 µM |  | > 100 µM | > 100 µM | > 100 µM | > 100 µM | > 100 µM | > 100 µM |  |  |  |  |  |  |  |  | 
22 | C[C@H](C/C=C/C(C)(C)O)[C@H]1CC[C@@]2(C)[C@@H]3CC[C@H]4C(C)(C)[C@@H](O)CC[C@@]45C[C@@]35CC[C@]12C | 50.7 µM | > 100 µM | 32.8 µM | 43.6 µM | 38.8 µM | 19.6 µM | 30.2 µM | 30.8 µM | > 100 µM |  |  |  |  |  |  |  |  | 
23 | CN(C)c1cccc(NC2=NCCO2)c1 | 42.9 µM | 32.8 µM | > 100 µM | > 100 µM | > 100 µM | > 100 µM | > 100 µM | > 100 µM |  | > 100 µM |  |  |  |  |  |  |  | 

— PubChem BioAssay (NCI)
